# Source: the supplement of paper PMC10307832
# Columns and labels:
# Assay in all cases: relative viability (nuclei count vs DMSO), 5 days (fraction); higher = more cells survive
# [1] = compound: O=C(c1cc(Cc2n[nH]c(=O)c3ccccc23)ccc1F)N1CCN(C(=O)C2CC2)CC1 [Olaparib] + COc1cc2c(Oc3ccc(NC(=O)C4(C(=O)Nc5ccc(F)cc5)CC4)cc3F)ccnc2cc1OCCCN1CCOCC1 [Foretinib] (partner 0.25 µM)
# How it was run: (§1)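 Each reported value is a median over duplicate plates. It expresses relative viability: treated-well nuclei count divided by vehicle-well nuclei count. Lung cancer cell lines in 1536-well plates were dosed by pin tool a day after seeding, alone with one drug or with a fixed anchor-drug dose plus five library-drug doses (not always all listed) in √10 steps, and nuclei were counted after 5 days.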
# [2] = compound: O=C(c1cc(Cc2n[nH]c(=O)c3ccccc23)ccc1F)N1CCN(C(=O)C2CC2)CC1 [Olaparib] + CC(=O)Nc1cccc(-n2c(=O)n(C3CC3)c(=O)c3c(Nc4ccc(I)cc4F)n(C)c(=O)c(C)c32)c1 [Trametinib] (partner 0.02 µM)
# How it was run: as §1
# [3] = compound: CC(C)C[C@H](NC(=O)[C@H](CCc1ccccc1)NC(=O)CN1CCOCC1)C(=O)N[C@@H](Cc1ccccc1)C(=O)N[C@@H](CC(C)C)C(=O)[C@@]1(C)CO1 [Carfilzomib] + COc1cccc2cc(-c3nc([C@H]4CC[C@H](C(=O)O)CC4)n4ncnc(N)c34)[nH]c12 [OSI-027] (partner 0.5 µM)
# How it was run: as §1
# [4] = compound: C[C@@H](Oc1cc(-c2cnn(C3CCNCC3)c2)cnc1N)c1c(Cl)ccc(F)c1Cl [Crizotinib] + Nc1nc2[nH]cc(CCc3ccc(C(=O)N[C@@H](CCC(=O)O)C(=O)O)cc3)c2c(=O)[nH]1 [Pemetrexed] (partner 0.2 µM)
# How it was run: as §1
Cell Line,relative viability ([1]; first compound 0.08 µM),relative viability ([1]; first compound 0.253 µM),relative viability ([1]; first compound 2.53 µM),relative viability ([1]; first compound 8 µM),relative viability ([2]; first compound 0.08 µM),relative viability ([2]; first compound 0.253 µM),relative viability ([2]; first compound 2.53 µM),relative viability ([2]; first compound 8 µM),relative viability ([3]; first compound 0.001 µM),relative viability ([3]; first compound 0.003162 µM),relative viability ([3]; first compound 0.01 µM),relative viability ([3]; first compound 0.03162 µM),relative viability ([3]; first compound 0.1 µM),relative viability ([4]; first compound 0.01 µM),relative viability ([4]; first compound 0.03162 µM),relative viability ([4]; first compound 0.1 µM),relative viability ([4]; first compound 0.3162 µM),relative viability ([4]; first compound 1 µM)
NCI-H1666,0.936,0.867,0.793,0.823,0.872,0.95,0.791,0.765,0.807,0.87,0.955,0.749,0.383,0.826,0.814,0.87,0.808,0.82
NCI-H1792,–,–,–,–,0.461,0.448,0.382,0.398,0.727,0.794,0.684,0.633,0.519,0.829,1.06,0.847,–,0.871
CAL-12T,1.24,0.984,1.07,0.928,0.351,0.292,0.417,0.305,0.667,0.708,0.85,0.131,0.131,1.09,1.09,1.06,1.19,1.02
EPLC-272H,0.764,0.582,0.729,0.64,0.363,0.272,0.306,0.287,0.284,0.291,0.248,0.119,0.0723,0.298,0.355,0.397,0.37,0.402
IA-LM,1.36,0.978,1.06,1.02,–,–,–,–,–,–,–,–,–,–,–,–,–,–
PC-14,1.06,0.892,0.903,0.684,0.937,0.646,0.434,0.456,0.904,0.962,0.603,0.0409,0.0529,0.124,0.127,0.134,0.143,0.132
NCI-H1703,0.469,0.328,0.333,0.364,–,–,–,–,–,–,–,–,–,–,–,–,–,–
NCI-H1437,1.3,1.12,1.08,0.914,0.535,0.469,0.503,0.504,0.876,0.952,0.841,0.889,0.241,0.338,0.3,0.319,0.314,0.325
NCI-H358,0.962,0.66,0.675,0.64,0.13,0.147,0.145,0.12,0.638,0.834,0.888,0.0702,0.0685,0.174,0.168,0.172,0.18,0.173
LK-2,1.4,1.21,1.15,1.12,0.887,0.701,0.888,0.788,0.223,0.201,0.166,0.18,0.181,0.276,0.188,0.246,0.166,0.236
H3255,0.942,0.792,0.901,0.872,0.652,0.633,0.583,0.567,0.581,0.536,0.65,0.584,0.237,0.556,0.553,0.592,0.54,0.557
